The experiment concerns the target T1, MAPK3 (ERK1) (Homo sapiens, UniProt P27361).
T1 construct: purchased Thermo Fisher Scientific (Life Technologies) SelectScreen
The experiment in a line: SelectScreen Z'LYTE. It counts as biochemical. The method in brief: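 Percent values come from Thermo SelectScreen profiling of NU5455, combining activity and binding assays. CSF1R was run in Z'LYTE format at Km app ATP, and CAMK1 in Adapta format with ATP listed at 10.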

T1 sequence (P27361 whole entry): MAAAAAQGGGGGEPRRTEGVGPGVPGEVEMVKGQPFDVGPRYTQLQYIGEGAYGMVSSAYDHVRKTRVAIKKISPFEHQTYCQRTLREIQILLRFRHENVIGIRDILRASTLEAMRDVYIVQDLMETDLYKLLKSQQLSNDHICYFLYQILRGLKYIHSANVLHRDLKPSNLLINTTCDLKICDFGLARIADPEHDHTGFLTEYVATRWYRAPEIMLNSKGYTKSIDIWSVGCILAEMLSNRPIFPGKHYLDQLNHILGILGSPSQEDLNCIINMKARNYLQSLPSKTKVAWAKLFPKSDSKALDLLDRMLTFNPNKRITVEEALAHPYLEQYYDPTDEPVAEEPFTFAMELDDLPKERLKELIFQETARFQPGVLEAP

As usually defined, the inhibition is the share of the control response that was lost under treatment. Read a high inhibition as strong suppression. The compound `CN(C(=O)CN1CCOCC1)c1ccc2sc3c(-c4cccc5c(=O)cc(N6CC7CCC(C6)O7)oc45)cccc3c2c1` [NU5455] returned an inhibition at 1 µM of 9.5%.

For the origin of these results see publication PMC6934184, “Selective DNA-PKcs inhibition extends the therapeutic index of localized radiotherapy and chemotherapy” (The Journal of Clinical Investigation, 2019).
